Laboratory results taken from patent US20250346569A1, “NEW DERIVATIVES FOR TREATING TRPM3 MEDIATED DISORDERS” (Katholieke Universiteit Leuven, priority 2022, published 2025).
pIC50: −log10 of the molar value.

System: TRPM3
Experiment: not given
Details: wild type mice vs knock-out TRPM3 mice; cited from earlier work

Compound	pain
pregnenolone sulfate	evoked pain in wild type mice but not in knock-out TRPM3 mice

System: not given
Experiment: not given
Details: rat pain model; cited from earlier work

Compound	mechanical and cold hyperalgesia
O=C1C[C@@H](c2ccc(O)cc2)Oc2cc(O)ccc21 [Liquiritigenin]	decrease mechanical and cold hyperalgesia

Biological target: T1, mouse TRPM3α2 (mTRPM3) ion channel (Mus musculus, UniProt J9SQF3)
T1 construct: expressed in transfected cells; host or cells: flip-in HEK293
Experiment: Monitoring the TRPM3 ion channel driven Ca2+ uptake (Fluo-4 AM assay)
Assay type: cell-based
Details: TRPM3 overexpressing flip-in HEK293 cells, channel stimulated with Pregnenolone sulfate (PS) 50 μM
In short: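 Flp-In HEK293 cells overexpressing mTRPM3α2, loaded with Fluo-4 AM and added to wells holding compound plus 50 μM pregnenolone sulfate in Ca2+-containing Krebs buffer. Fluorescence (ex 485/em 535) read right after cell addition. Inhibition normalised to vehicle and positive-control inhibitor; IC50 derived.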

T1 sequence (J9SQF3 1-1709 isoform J9SQF3-12): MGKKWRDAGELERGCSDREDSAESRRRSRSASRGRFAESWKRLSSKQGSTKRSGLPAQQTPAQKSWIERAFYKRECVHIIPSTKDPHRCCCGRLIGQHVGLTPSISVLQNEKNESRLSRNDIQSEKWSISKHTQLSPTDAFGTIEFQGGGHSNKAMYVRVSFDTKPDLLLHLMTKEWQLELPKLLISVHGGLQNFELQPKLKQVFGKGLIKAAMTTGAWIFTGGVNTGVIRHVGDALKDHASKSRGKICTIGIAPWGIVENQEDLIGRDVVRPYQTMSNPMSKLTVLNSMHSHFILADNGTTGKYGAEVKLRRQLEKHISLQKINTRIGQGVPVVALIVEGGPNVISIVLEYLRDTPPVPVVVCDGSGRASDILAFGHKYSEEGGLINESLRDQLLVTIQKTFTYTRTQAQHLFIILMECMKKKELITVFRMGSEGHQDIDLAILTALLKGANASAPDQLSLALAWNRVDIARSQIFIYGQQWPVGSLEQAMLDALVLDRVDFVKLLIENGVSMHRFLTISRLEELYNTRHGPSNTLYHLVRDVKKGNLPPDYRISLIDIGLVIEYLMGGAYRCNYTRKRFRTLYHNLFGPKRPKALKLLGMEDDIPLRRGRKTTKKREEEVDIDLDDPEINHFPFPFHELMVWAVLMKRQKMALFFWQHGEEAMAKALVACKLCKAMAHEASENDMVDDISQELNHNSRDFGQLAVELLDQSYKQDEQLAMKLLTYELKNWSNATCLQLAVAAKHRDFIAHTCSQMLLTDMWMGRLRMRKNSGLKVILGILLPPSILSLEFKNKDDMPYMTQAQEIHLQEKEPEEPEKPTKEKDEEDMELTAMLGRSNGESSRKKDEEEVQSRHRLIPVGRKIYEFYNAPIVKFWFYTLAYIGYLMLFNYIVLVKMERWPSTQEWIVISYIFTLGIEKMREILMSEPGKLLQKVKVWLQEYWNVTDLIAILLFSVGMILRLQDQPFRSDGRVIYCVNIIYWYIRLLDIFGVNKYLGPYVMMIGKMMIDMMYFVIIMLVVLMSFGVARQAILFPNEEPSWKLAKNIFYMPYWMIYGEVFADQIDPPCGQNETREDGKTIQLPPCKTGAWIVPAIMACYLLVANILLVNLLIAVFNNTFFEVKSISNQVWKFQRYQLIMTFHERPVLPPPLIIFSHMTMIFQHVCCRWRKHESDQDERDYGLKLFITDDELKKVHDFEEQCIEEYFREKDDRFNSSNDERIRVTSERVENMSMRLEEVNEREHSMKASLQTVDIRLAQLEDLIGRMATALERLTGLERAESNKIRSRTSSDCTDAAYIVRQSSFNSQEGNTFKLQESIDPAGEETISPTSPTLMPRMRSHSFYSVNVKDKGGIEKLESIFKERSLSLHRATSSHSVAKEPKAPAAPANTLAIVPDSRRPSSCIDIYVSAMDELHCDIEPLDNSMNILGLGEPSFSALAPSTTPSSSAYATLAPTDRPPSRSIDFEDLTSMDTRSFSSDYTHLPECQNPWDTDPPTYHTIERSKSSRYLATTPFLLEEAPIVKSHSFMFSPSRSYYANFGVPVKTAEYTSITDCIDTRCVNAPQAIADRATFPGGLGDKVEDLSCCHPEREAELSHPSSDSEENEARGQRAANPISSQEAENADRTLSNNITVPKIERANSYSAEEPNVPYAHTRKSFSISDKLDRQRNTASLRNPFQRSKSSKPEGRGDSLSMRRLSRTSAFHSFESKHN

Compound	pIC50
Cc1sc2ccc(OCc3cccnc3O)cc2c1C(=O)NC(C)(C)C(N)=O [Cpd 066, 2-({5-[(2-hydroxypyridin-3-yl)methoxy]-2-methyl-1-benzothiophen-3-yl}formamido)-2-methylpropanamide]	> 6.00
Cc1ncsc1COc1ccc2sc(C)c(C(=O)NC(C)(C)C(N)=O)c2c1 [Cpd 031, 2-methyl-2-({2-methyl-5-[(4-methyl-1,3-thiazol-5-yl)methoxy]-1-benzothiophen-3-yl}formamido)propanamide]	> 6.00
Cc1ncsc1COc1ccc2sc(C)c(C(=O)N[C@@H](C)C(N)=O)c2c1 [Cpd 012, (2S)-2-({2-methyl-5-[(4-methyl-1,3-thiazol-5-yl)methoxy]-1-benzothiophen-3-yl}formamido)propanamide]	> 6.00
Cc1ncsc1COc1ccc2sc(C)c(C(=O)NC3CCNCC3(F)F)c2c1 (single isomer, unassigned) [Cpd 042 - En1, N-(3,3-difluoropiperidin-4-yl)-2-methyl-5-[(4-methyl-1,3-thiazol-5-yl)methoxy]-1-benzothiophene-3-carboxamide]	> 6.00
Cc1ncsc1COc1ccc2sc(C)c(C(=O)NCC(C)(C)O)c2c1 [Cpd 045, N-(2-hydroxy-2-methylpropyl)-2-methyl-5-[(4-methyl-1,3-thiazol-5-yl)methoxy]-1-benzothiophene-3-carboxamide]	> 6.00
Cc1ncc(COc2ccc3sc(C)c(C(=O)N[C@H](CO)C(N)=O)c3c2)s1 [Cpd 017, (2R)-3-hydroxy-2-({2-methyl-5-[(2-methyl-1,3-thiazol-5-yl)methoxy]-1-benzothiophen-3-yl}formamido)propanamide]	> 6.00
Cc1ncsc1COc1ccc2sc(C)c(C(=O)NC3CC(F)(F)C3)c2c1 [Cpd 039, N-(3,3-difluorocyclobutyl)-2-methyl-5-[(4-methyl-1,3-thiazol-5-yl)methoxy]-1-benzothiophene-3-carboxamide]	> 6.00
Cc1sc2ccc(OCc3ccccn3)cc2c1C(=O)NC1(C(N)=O)CCOCC1 [Cpd 071, 4-{2-methyl-5-[(pyridin-2-yl)methoxy]-1-benzothiophene-3-amido}oxane-4-carboxamide]	> 6.00
Cc1ncc(COc2ccc3sc(C)c(C(=O)NC4(C(N)=O)CCOCC4)c3c2)s1 [Cpd 021, 4-{2-methyl-5-[(2-methyl-1,3-thiazol-5-yl)methoxy]-1-benzothiophene-3-amido}oxane-4-carboxamide]	> 6.00
Cc1ncc(COc2ccc3sc(C)c(C(=O)NC(C)(CO)C(N)=O)c3c2)s1 (single isomer, unassigned) [Cpd 019 - En1, 3-hydroxy-2-methyl-2-({2-methyl-5-[(2-methyl-1,3-thiazol-5-yl)methoxy]-1-benzothiophen-3-yl}formamido)propanamide]	> 6.00
Cc1ncsc1COc1ccc2sc(C)c(C(=O)NC3(C(N)=O)CCOCC3)c2c1 [Cpd 033, 4-{2-methyl-5-[(4-methyl-1,3-thiazol-5-yl)methoxy]-1-benzothiophene-3-amido}oxane-4-carboxamide]	> 6.00
Cc1sc2ccc(OCc3ccccc3F)cc2c1C(=O)N[C@@H]1CCN(CCO)C1=O [Cpd 055, 5-[(2-fluorophenyl)methoxy]-N-[(3R)-1-(2-hydroxyethyl)-2-oxopyrrolidin-3-yl]-2-methyl-1-benzothiophene-3-carboxamide]	4.70 to 6.00
Cc1ncsc1COc1ccc2sc(C)c(C(=O)NCc3cccc(O)n3)c2c1 [Cpd 047, N-[(6-hydroxypyridin-2-yl)methyl]-2-methyl-5-[(4-methyl-1,3-thiazol-5-yl)methoxy]-1-benzothiophene-3-carboxamide]	> 6.00
Cc1ncc(COc2ccc3sc(C)c(C(=O)NC4(C(N)=O)COC4)c3c2)s1 [Cpd 026, 3-{2-methyl-5-[(2-methyl-1,3-thiazol-5-yl)methoxy]-1-benzothiophene-3-amido}oxetane-3-carboxamide]	> 6.00

Second part, the compound after the results:

pIC50	Compound
> 6.00	Cc1sc2ccc(OCc3cccnc3C(F)(F)F)cc2c1C(=O)NC1CCN(C)CC1 [Cpd 129, 2-methyl-N-(1-methylpiperidin-4-yl)-5-{[2-(trifluoromethyl)pyridin-3-yl]methoxy}-1-benzothiophene-3-carboxamide]
> 6.00	Cc1sc2ccc(OCc3ccccn3)cc2c1C(=O)NC1(C(N)=O)COC1 [Cpd 088, 3-{2-methyl-5-[(pyridin-2-yl)methoxy]-1-benzothiophene-3-amido}oxetane-3-carboxamide]
< 4.70	Cc1sc2ccc(OCc3ccccc3)cc2c1C(=O)NC1CC(F)(F)C1 [Cpd 089, 5-(benzyloxy)-N-(3,3-difluorocyclobutyl)-2-methyl-1-benzothiophene-3-carboxamide]
4.70 to 6.00	Cc1sc2ccc(OCc3ccccc3)cc2c1C(=O)NCCN1CCOC1=O [Cpd 106, 5-(benzyloxy)-2-methyl-N-[2-(2-oxo-1,3-oxazolidin-3-yl)ethyl]-1-benzothiophene-3-carboxamide]
> 6.00	CNC(=O)c1c(C)sc2ccc(OCc3cccnc3C(F)(F)F)cc12 [Cpd 136, N,2-dimethyl-5-{[2-(trifluoromethyl)pyridin-3-yl]methoxy}-1-benzothiophene-3-carboxamide]
> 6.00	O=C(NC1CCNC1=O)c1c(C(F)F)sc2ccc(OCc3ccccc3)cc12 (stereo not shown) [Cpd 146, 5-(benzyloxy)-2-(difluoromethyl)-N-(2-oxopyrrolidin-3-yl)-1-benzothiophene-3-carboxamide]
> 6.00	Cc1sc2ccc(OCc3cccnc3O)cc2c1C(=O)NC1(CO)CCOCC1 [Cpd 084, N-[4-(hydroxymethyl)oxan-4-yl]-5-[(2-hydroxypyridin-3-yl)methoxy]-2-methyl-1-benzothiophene-3-carboxamide]
> 6.00	Cc1sc2ccc(OCc3ccccc3F)cc2c1C(=O)NC1(CO)COC1 [Cpd 085, 5-[(2-fluorophenyl)methoxy]-N-[3-(hydroxymethyl)oxetan-3-yl]-2-methyl-1-benzothiophene-3-carboxamide]
4.70 to 6.00	Cc1sc2ccc(OCc3ccccc3)cc2c1C(=O)NCC(C)(C)N1CCOCC1 [Cpd 098, 5-(benzyloxy)-2-methyl-N-[2-methyl-2-(morpholin-4-yl)propyl]-1-benzothiophene-3-carboxamide]
4.70 to 6.00	CNC(=O)c1c(C)sc2ccc(OCc3scnc3C)cc12 [Cpd 137, N,2-dimethyl-5-[(4-methyl-1,3-thiazol-5-yl)methoxy]-1-benzothiophene-3-carboxamide]
> 6.00	Cc1sc2ccc(OCc3ccccc3F)cc2c1C(=O)NC1(CO)CC1 [Cpd 074, 5-[(2-fluorophenyl)methoxy]-N-[1-(hydroxymethyl)cyclopropyl]-2-methyl-1-benzothiophene-3-carboxamide]
> 6.00	Cc1ncsc1COc1ccc2sc(C)c(C(=O)NCC3(N(C)C)CCCC3)c2c1 [Cpd 114, N-{[1-(dimethylamino)cyclopentyl]methyl}-2-methyl-5-[(4-methyl-1,3-thiazol-5-yl)methoxy]-1-benzothiophene-3-carboxamide]
4.70 to 6.00	Cc1sc2ccc(OCc3cccnc3C(F)(F)F)cc2c1C(=O)NCCN1CCOC1=O [Cpd 107, 2-methyl-N-[2-(2-oxo-1,3-oxazolidin-3-yl)ethyl]-5-{[2-(trifluoromethyl)pyridin-3-yl]methoxy}-1-benzothiophene-3-carboxamide]
> 6.00	CNC(=O)C1(NC(=O)c2c(C)sc3ccc(OCc4cnc(C)s4)cc23)CCOC1 (single isomer, unassigned) [Cpd 133 - En2, N-methyl-3-{2-methyl-5-[(2-methyl-1,3-thiazol-5-yl)methoxy]-1-benzothiophene-3-amido}oxolane-3-carboxamide]
< 4.70	O=C1CCC(CNC(=O)c2c(C(F)F)sc3ccc(OCc4ccccc4)cc23)N1 (stereo not shown) [Cpd 148, 5-(benzyloxy)-2-(difluoromethyl)-N-[(5-oxopyrrolidin-2-yl)methyl]-1-benzothiophene-3-carboxamide]
